Values of other authors in US20050147632A1, “Virally infected plants as a source of insect reppellants/attractents” (priority 2002, published 2005).

Test system: neighboring plants
Conditions: Shulaev et al., Nature 385: 718-721, 1997

SMILES: COC(=O)c1ccccc1O [methyl salicylate]
- induction of plant pathogen resistance: capable of inducing plant pathogen resistance in neighboring plants
